As a reminder, the Ki is a measure of affinity in units of concentration, obtained from inhibition or displacement.

Results on 2 molecules are retold here after patent US20240190889A1, “NEW CYCLOPENTA-THIENO-DIAZEPINE DERIVATIVES AS GABA A GAMMA1 POSITIVE ALLOSTERIC MODULATORS” (Hoffmann-La Roche Inc., priority 2021, published 2024).

Assay [1] has as its target human GABAA α5β2γ1 receptor (Homo sapiens (Human), UniProt P31644+Q8N1C3). The assay can be described thus: Radioligand binding assay, competition for [3H]RO7239181, γ1-containing GABAA subtypes. The conditions noted are these: membranes from HEK293F cells, mean of two determinations.
Assay [2] has as its target human GABAA α2β2γ1 receptor (Homo sapiens (Human), UniProt P47869+Q8N1C3). The assay is described as above.
The target of assay [3] is human GABAA α1β3γ2 receptor (Homo sapiens (Human), UniProt P14867+P18507). The assay can be described thus: Radioligand binding assay, competition for [3H]Flumazenil, γ2-containing GABAA subtypes. The settings on record: for γ2/γ1 Selectivity Ratio: Ki α1β3γ2 (nM)/Ki α2β2γ1 (nM); for LogSel: Log[Ki α1β3γ2 (nM)/Ki α2β2γ1 (nM)].
Where [4] appears, read: read-out: Ki h-GABAA α2β2γ1, membranes from HEK293F cells, [3H]RO7239181 20-30 nM, mean of two determinations.

Like-named read-outs stand apart in the source and are kept apart here.

For the molecule `Cc1cnc2n1-c1sc3c(c1C(c1c(F)cccc1F)=N[C@H]2C)C[C@@H](C(F)F)C3` [Example 20, (7S,13R)-13-(difluoromethyl)-9-(2,6-difluorophenyl)-3,7-dimethyl-16-thia-2,5,8-triazatetracyclo [8.6.0.02,6.011,15]hexadeca-1(10),3,5,8,11(15)-pentaene], the Ki in assay [1] came to 3.6 nM; in assay [2] it was 2.24 nM; in assay [2] (setting [4]), 2.24 nM; in assay [3], 191 nM. Besides, in assay [3], the “γ2/γ1 Selectivity Ratio” value is reported as 53.4. Moreover, the LogSel in assay [3] turned out to be 1.73.
With `C[C@@H]1N=C(c2c(F)cccc2F)c2c(sc3c2C[C@@H](C(F)F)C3)-n2c(CO)cnc21` [Example 21, [(7S,13R)-13-(difluoromethyl)-9-(2,6-difluorophenyl)-7-methyl-16-thia-2,5,8-triazatetracyclo [8.6.0.02,6.011,15]hexadeca-1(10),3,5,8,11(15)-pentaen-3-yl]methanol], the Ki is 4.7 nM in assay [1], 2.97 nM in assay [2], 2.97 nM in assay [2] (setting [4]) and 606 nM in assay [3]. Also, the “γ2/γ1 Selectivity Ratio” value in assay [3] is on record as 127.6. In addition, the LogSel in assay [3] worked out at 2.11.
